# Data reported in patent US20250109127A1, “METHODS OF USE OF PHENOXYPROPYLAMINE COMPOUNDS TO TREAT DEPRESSION” (Minerva Neurosciences, Inc., priority 2013, published 2025).
# “And” between values parts separate entries of the source, which are not always exact repeats. Equal entries are not always repeated. Structures can show the parent of a compound that is named as a salt.
# Tested on: 5-HT release in the rat prefrontal cortex
# Experiment: Microdialysis: 5-HT release in prefrontal cortex after I.P. administration
# Type: in vivo
# Settings: for 5-HT (% of respective basal), individual animal: 0.1 mg/kg I.P., c2-c9 = R#13,14,20,19,25,26,31,32; for 5-HT (% of respective basal), individual animal / 5-HT release, individual animals: hydrochloride; for 5-HT release, MEAN / 5-HT release, individual animals: 0.3 mg/kg I.P.; for 5-HT release, MEAN: n = 8; for 5-HT release, individual animals: one column per animal R#11,12,18,23,29,30,17,24
# Protocol: The aim of the study was to evaluate, using microdialysis, the effects of an intraperitoneal (I.P.) administration in rats of three different doses of SON-117 on dopamine and its metabolites, serotonin and its metabolite (5-HIAA), and norepinephrine levels in prefrontal cortex.
# Thirty-two adult male Wistar rats were used for the whole study (4 groups of eight animals planned for the study, Table 1).
# Surgery was performed on rats weighing about 300 g at the beginning of the experiments. Rats were anaesthetized with Ketamine (50 mg/kg) & Xylazine (15 mg/kg) by intramuscular administration. The animals were placed in a stereotaxic apparatus in the flat-skull position at a constant setting of −3.3 mm between ear bars and the incisor bar. The animals were treated with a local anesthesic (xylocaine 1%, Astra Zeneca) and an analgesic (Temgesic, from Schering Plough, 0.05 mg/kg, s.c.). A rostrocaudal midline incision was made with a lancet to expose the dorsal skull surface. The “stereotaxic zero” was defined by the Bregma in accordance with Paxinos and Watson's atlas (1986). A hole was drilled in the skull with a drill and the meninges were pierced with a sterile needle to implant a CMA12 guide cannula which later received the dialysis probe.
# Coordinates used for implanting guide cannula in prefrontal cortex from Bregma were anteroposterior 3.7 mm, mediolateral 0.8 mm, and dorsoventral −2 mm (top of the probe was at −5 mm). The guide cannula was fixed to the skull with two stainless steel screws (1.88 mm outside diameter) anchored. An application of dental cement was added. A plastic collar allowed each animal to be tethered to a Swivel assembly of the CMA 120 awake animal system. Following surgery, rats were kept in individual cages and allowed to recover for a minimum of 3-5 days before the experimentation. The rats were handled and put in plastic bowl for 10 min at least every day to habituate the animals to their new environment for the dialysis. An I.P. administration with saline was also performed every day.
# Dialysis probes (CMA12/3 mm, membrane, 20 kD cut-off, Carnegie Medicine, Stockholm, Sweden), were carefully washed before inserting into the guide cannula. The wash was performed with the artificial cerebrospinal fluid (aCSF) medium (NaCl 147 mM, KCl 2.7 mM, CaCl2 1.2 mM, MgCl2 0.85 mM) at room temperature. The dialysis system was then equilibrated at 20° C. at a perfusion rate of 1 μl/min with a Carnegie pump (CMA100). All catheters (FEP tubing, internal volume of 1.2 μl/10 cm, and tubing adaptors) used for microdialysis were treated in the same conditions.
# The probes duly prepared were inserted into the guide cannula and the CMA120 Swivel assembly secured to the animal using a plastic collar. Flow through the dialysis probe with aCSF was maintained at a rate of 1 μl/min during the whole experimentation. The first four fractions (corresponding to 2 hours) were discarded to avoid the effects of parenchymal disturbance and to ensure that an approximate steady-state level was reached. Fractions were then collected over a period of 8.5 h during which time the animals remained quiet. The dialysates were automatically collected with an autosampler (microfraction collector CMA 140, Carnegie Medicin) and stored at −80° C. until analysis. […] Perfusion was then maintained for 7 hours with aCSF. The dialysates (30 μl) were collected into 300 μl vials, transferred into dry ice and then kept frozen (−80° C.) until analysis. Frozen samples were shipped to a partner for analysis. At the end of the microdialysis study, a PBS with colored ink was perfused through the probe in order to visualize the dialyzed area.
# Catecholamine assay: Concentrations of dopamine, DOPAC, HVA, 5-HIAA, 5-HT, and norepinephrin were determined for each sample by HPLC coupled with electrochemical detection. […]
smiles,measurement,setting,value
"Cc1nnc(-c2cc3c(OC[C@@H](O)CN4CCC(c5ccc(Cl)c(Cl)c5)CC4)cccc3o2)o1 [SON-117, (S)-1-(4-(3,4-dichlorophenyl)piperidino)-3-(2-(5-methyl-1,3,4-oxadiazol-2-yl)benzo(b)furan-4-yloxy)-2-propanol hydrochloride]","5-HT (% of respective basal), individual animal",T30-T1 h,69.00 % of respective basal and 117.47 % of respective basal and 153.30 % of respective basal and 119.68 % of respective basal and 228.97 % of respective basal and 127.98 % of respective basal and 113.81 % of respective basal and 57.12 % of respective basal
same,"5-HT (% of respective basal), individual animal",T1 h 30-T2 h,92.30 % of respective basal and 410.73 % of respective basal and 162.34 % of respective basal and 123.16 % of respective basal and 77.29 % of respective basal and 149.14 % of respective basal and 262.61 % of respective basal and 62.56 % of respective basal
same,"5-HT (% of respective basal), individual animal",T1 h-T1 h 30,84.80 % of respective basal and 173.62 % of respective basal and 140.43 % of respective basal and 113.99 % of respective basal and 98.07 % of respective basal and 572.83 % of respective basal and 162.09 % of respective basal and 62.45 % of respective basal
same,"5-HT (% of respective basal), individual animal",T2 h 30-T3 h,51.79 % of respective basal and 182.3 % of respective basal and 109.29 % of respective basal and 102.05 % of respective basal and 101.27 % of respective basal and 528.93 % of respective basal and 86.68 % of respective basal and 564.06 % of respective basal
same,"5-HT (% of respective basal), individual animal",T2 h-T2 h 30,82.11 % of respective basal and 59.17 % of respective basal and 129.41 % of respective basal and 112.33 % of respective basal and 523.12 % of respective basal and 458.59 % of respective basal and 127.80 % of respective basal and 1473.07 % of respective basal
same,"5-HT (% of respective basal), individual animal",T3 h 30-T4 h,74.33 % of respective basal and 66.30 % of respective basal and 153.79 % of respective basal and 155.51 % of respective basal and 132.93 % of respective basal and 131.96 % of respective basal and 93.88 % of respective basal and 405.95 % of respective basal
same,"5-HT (% of respective basal), individual animal",T3 h-T3 h 30,72.21 % of respective basal and 249.58 % of respective basal and 128.14 % of respective basal and 138.05 % of respective basal and 139.82 % of respective basal and 122.70 % of respective basal and 103.66 % of respective basal and 298.06 % of respective basal
same,"5-HT (% of respective basal), individual animal",T4 h 30-T5 h,79.25 % of respective basal and 111.21 % of respective basal and 188.06 % of respective basal and 105.16 % of respective basal and 99.59 % of respective basal and 221.4 % of respective basal and 113.08 % of respective basal and 1455.86 % of respective basal
same,"5-HT (% of respective basal), individual animal",T4 h-T4 h 30,10.23 % of respective basal and 242.01 % of respective basal and 138.36 % of respective basal and 81.92 % of respective basal and 75.44 % of respective basal and 312.84 % of respective basal and 89.43 % of respective basal and 1851.01 % of respective basal
same,"5-HT (% of respective basal), individual animal",T5 h 30-T6 h,18.22 % of respective basal and 541.94 % of respective basal and 112.81 % of respective basal and 91.86 % of respective basal and 67.97 % of respective basal and 390.29 % of respective basal and 95.06 % of respective basal and 682.45 % of respective basal
same,"5-HT (% of respective basal), individual animal",T5 h-T5 h 30,106.82 % of respective basal and 610.15 % of respective basal and 166.13 % of respective basal and 112.99 % of respective basal and 48.55 % of respective basal and 433.73 % of respective basal and 103.27 % of respective basal and 900.33 % of respective basal
same,"5-HT (% of respective basal), individual animal",T6 h 30-T7 h,76.67 % of respective basal and 764.86 % of respective basal and 75.95 % of respective basal and 109.17 % of respective basal
same,"5-HT (% of respective basal), individual animal",T6 h-T6 h 30,98.17 % of respective basal and 780.23 % of respective basal and 117.32 % of respective basal and 105.66 % of respective basal and 44.34 % of respective basal and 387.64 % of respective basal and 93.11 % of respective basal and 410.53 % of respective basal
same,"5-HT release, MEAN",T0-T30 min,119.65 % of respective basal
same,"5-HT release, MEAN",T30-T1 h,111.24 % of respective basal
same,"5-HT release, individual animals",T30-T1 h,160.62 % of respective basal and 82.62 % of respective basal and 90.53 % of respective basal and 121.61 % of respective basal and 144.48 % of respective basal and 187.01 % of respective basal and 55.67 % of respective basal and 47.37 % of respective basal
same,"5-HT release, MEAN",T1 h 30-T2 h,114.14 % of respective basal
same,"5-HT release, individual animals",T1 h 30-T2 h,181.24 % of respective basal and 97.85 % of respective basal and 76.79 % of respective basal and 83.68 % of respective basal and 125.63 % of respective basal and 123.37 % of respective basal and 24.18 % of respective basal and 200.38 % of respective basal
same,"5-HT release, MEAN",T1 h-T1 h 30,144.23 % of respective basal
same,"5-HT release, individual animals",T1 h-T1 h 30,149.89 % of respective basal and 128.02 % of respective basal and 96.66 % of respective basal and 76.75 % of respective basal and 140.12 % of respective basal and 235.56 % of respective basal and 63.72 % of respective basal and 263.12 % of respective basal
same,"5-HT release, MEAN",T2 h 30-T3 h,126.37 % of respective basal
same,"5-HT release, individual animals",T2 h 30-T3 h,96.77 % of respective basal and 104.38 % of respective basal and 101.02 % of respective basal and 167.96 % of respective basal and 125.41 % of respective basal and 206.04 % of respective basal and 42.18 % of respective basal and 167.18 % of respective basal
same,"5-HT release, MEAN",T2 h-T2 h 30,106.16 % of respective basal
same,"5-HT release, individual animals",T2 h-T2 h 30,111.34 % of respective basal and 124.56 % of respective basal and 108.53 % of respective basal and 74.72 % of respective basal and 123.51 % of respective basal and 215.61 % of respective basal and 33.60 % of respective basal and 57.37 % of respective basal
same,"5-HT release, MEAN",T3 h 30-T4 h,133.06 % of respective basal
